From patent publication US4283409A, “Imidazolone derivatives” (Pfizer Inc., priority 1979, dated 1981)

Assays:
[1] = system: sorbitol accumulation in the sciatic nerve of streptozotocinized (i.e., diabetic) rats; experiment: sorbitol accumulation in the sciatic nerve of streptozotocinized (diabetic) rats; type: in vivo
Description: (§1) The activity of the compounds of the present invention, as agents for the control of chronic diabetic complications, is determined by their ability to successfully pass one or more of the following standard biologically and/or pharmacological tests, viz., (1) measuring their ability to reduce or inhibit sorbitol accumulation in the sciatic nerve of acutely streptozotocinized (i.e., diabetic) rats; (2) measuring their ability to reverse already-elevated sorbitol levels in the sciatic nerve and lens of chronic streptozotocin-induced diabetic rats; (3) measuring their ability to prevent or inhibit galactitol formation in the lens of acutely galactosemic rats, and (4) measuring their ability to delay cataract formation and reduce the severity of lens opacities in chronic galactosemic rats.
The final product of Example 1, viz., 3',4'-dihydro-spiro-[imidazolidine-4,1'(2'H)naphthalene]-5-one, was tested for its ability to reduce or inhibit sorbitol accumulation in the sciatic nerve of streptozotocinized (i.e., diabetic rats) by the procedure essentially described in U.S. Pat. No. 3,821,383. In the present study, the amount of sorbitol accumulation in the sciatic nerves was measured 27 hours after the induction of diabetes. The compound was then administered orally at 25 mg./kg. at intervals of 4, 8 and 24 hours after the administration of streptozotocin. The results obtained in this manner are clearly presented in terms of the percent inhibition (%) afforded by the test compound as compared to the case where no compound was administered (i.e., the control or untreated animal where sorbitol levels normally rise from approximately […]. tissue to as high as 400 mM/g. tissue in the 27-hour test period).

[2] = system: galactitol levels in the lens of galactosemic subjects; experiment: galactitol levels in the lens of galactosemic subjects; type: in vivo, rats; conditions: summary statement, no dose given
Description: as §1

Question: For `O=C1NCNC12CCCc1ccccc12` (stereo not shown) [Example 1, 3',4'-dihydro-spiro-[imidazolidine-4,1'(2'H)naphthalene]-5-one], which “percent inhibition of sorbitol accumulation in the sciatic nerve” value ([1]; diabetic rats, oral 25 mg./kg. at 4, 8 and 24 hours after streptozotocin, sorbitol measured 27 hours after induction of diabetes, vs untreated control) is on record?
Answer: 52%

Question: And the “signs of toxic side effects” value ([1]; diabetic rats, oral route, dose level of 25 mg./kg.)?
Answer: without showing any substantial signs of toxic side effects

Question: And the “lowering sorbitol levels in the lens and sciatic nerve of diabetic subjects” value ([1]; summary statement, no dose given)?
Answer: remarkably effective

Question: And the “lowering galactitol levels in the lens of galactosemic subjects” value [2]?
Answer: remarkably effective
